Publication PMC11995831, “Synthesis of Novel Isoindolinones: Carbonic Anhydrase Inhibition Profiles, Antioxidant Potential, Antimicrobial Effect, Cytotoxicity and Anticancer Activity” (Journal of Biochemical and Molecular Toxicology, 2025)
≈ marks a conversion by molar mass, not a printed value. Entries after “also recorded” stand apart in the source; their conditions may differ.

How the values were obtained:
hCA I = hCA I (Homo sapiens, UniProt P00915); assay: hCA I inhibition assay (esterase activity); format: biochemical; conditions: human erythrocyte hCA I
hCA II = hCA II (Homo sapiens, UniProt P00918); assay: hCA II inhibition assay (esterase activity); format: biochemical; conditions: for IC50 / Ki: human erythrocyte hCA II, esterase activity
[1] = ABTS radical cation scavenging assay; conditions: for IC50 ABTS method: ABTS radical scavenging; for antioxidant activity (in words): ABTS scavenging and Fe reduction, compared to BHT, BHA, α-tocopherol; for ABTS radical scavenging (λ734): absorbance at 734 nm, 30 μg/mL concentration
Description: Antioxidant capacity was determined using the ABTS radical cation scavenging method ABTS and potassium persulfate (K2S2O8) were mixed in equal proportions and incubated at room temperature to generate the radical cation. The resulting solution was diluted with ethanol, and the absorbance of the control was adjusted to 0.928 ± 0.025 at 734 nm. Different concentrations of the compounds were prepared, added to test tubes, and adjusted with 0.2 mL of ethanol. To each tube, 0.8 mL of the ABTS radical solution was added. After incubation for 30 min, the absorbance of the remaining ABTS^•+ was measured at 734 nm.

[2] = Fe3+ reducing power assay (FRAP method); conditions: absorbance at 700 nm, 30 μg/mL concentration
Description: The ability of the carbamate compounds to reduce was evaluated using the FRAP assay. Various concentrations of the compounds were dissolved in deionized water to a final volume of 0.2 mL in test tubes. To each tube, 500 µL of potassium […] [K3Fe(CN)6] and 500 µL of phosphate buffer (0.2 M, pH 6.6) were added. The mixture was vortexed and incubated for 20 min at 50°C. Then, 500 µL of 10% trichloroacetic acid was added, and 500 µL of the upper layer of the solution was mixed with 100 µL of 0.1% FeCl3 and 500 µL of distilled water. The absorbance of the reducing effect was recorded using a spectrophotometer at 700 nm.

[3] = test system: Escherichia coli ATCC 43895; assay: Disc diffusion, Escherichia coli; format: cell-based; conditions: read-out: inhibitory zone diameter, B3 Escherichia coli; for zone of inhibition at 1000 µg/mL: ATCC43895, compounds at 1000 μg/mL, disc diameter 5 mm, 24 h
Description: All tests were conducted in triplicate.

L929 cells = assay: Cytotoxicity, WST-1 assay in L929 cells; format: cell-based; conditions: WST-1, 24 h exposure, 6.25-500 μg/ml
[4] = test system: Bacillus subtilis ATCC 6633; assay: Disc diffusion, Bacillus subtilis; conditions: for zone of inhibition at 1000 µg/mL: ATCC6633, 24 h, read-out: inhibitory zone diameter, B1 Bacillus subtilis
[5] = test system: Staphylococcus aureus ATCC 25923; assay: Disc diffusion, Staphylococcus aureus; conditions: for zone of inhibition at 1000 µg/mL: ATCC25923, 24 h, read-out: inhibitory zone diameter, B2 Staphylococcus aureus
[6] = test system: Klebsiella pneumoniae ATCC 13883; assay: Disc diffusion, Klebsiella pneumoniae; conditions: for zone of inhibition at 1000 µg/mL: ATCC13883, 24 h, read-out: inhibitory zone diameter, B4 Klebsiella pneumonia
A549 cell line = assay: Anticancer activity, WST-1 assay in A549 cells; conditions: WST-1, 24 h exposure, 6.25-500 μg/ml
[7] = test system: Candida albicans ATCC 10231; assay: Disc diffusion, Candida albicans
[8] = test system: Yarrowia lipolytica ATCC 20460; assay: Disc diffusion, Yarrowia lipolytica
[9] = positive control 10 µg disc^−1, disc diameter 5 mm

Chain of hCA I (P00915 whole entry): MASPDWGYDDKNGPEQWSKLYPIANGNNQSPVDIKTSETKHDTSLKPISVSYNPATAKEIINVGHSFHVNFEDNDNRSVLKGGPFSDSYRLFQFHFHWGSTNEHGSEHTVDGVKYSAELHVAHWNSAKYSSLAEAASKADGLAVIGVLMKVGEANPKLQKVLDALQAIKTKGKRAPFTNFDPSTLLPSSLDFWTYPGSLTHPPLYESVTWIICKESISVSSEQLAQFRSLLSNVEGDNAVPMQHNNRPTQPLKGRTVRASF

| Structure (SMILES) | IC50 (hCA I) | Ki (hCA I) | IC50 (hCA II) | IC50 ABTS method [1] | ABTS radical scavenging (λ734) [1] | Fe^3+-Fe^2+ reducing (λ700) [2] | zone of inhibition at 1000 µg/mL [3] | zone of inhibition at 1000 µg/mL [4] | zone of inhibition at 1000 µg/mL [5] | zone of inhibition at 1000 µg/mL [6] | Ki (hCA II) | other results |
| --- | --- | --- | --- | --- | --- | --- | --- | --- | --- | --- | --- | --- |
| CCOS(=O)(=O)N1C(=O)c2ccccc2C1(O)c1ccccc1 (centres unmarked) [2a, Ethyl1‐hydroxy‐3‐oxo‐1‐phenylisoindoline‐2‐sulfonate] | 24.3 ± 1.98 nM | 22 ± 9.21 nM | 28.84 ± 0.151 nM | 231.00 µg/mL | 0.835 ± 0.024 | 1.168 ± 0.058 | 9 mm | 7 mm | 7 mm | 8 mm |  | antioxidant activity (in words) [1]: lowest activity; cell proliferation of L929 cells compared with control group (in words) (L929 cells): increased cell proliferation; anticancer activity against A549 cells (in words) (A549 cell line): dose‐dependent anticancer activity; also recorded: demonstrated inhibitory effects at high doses |
| CCCOS(=O)(=O)N1C(=O)c2ccccc2C1(O)c1ccccc1 (centres unmarked) [2b, Propyl1‐hydroxy‐3‐oxo‐1‐phenylisoindoline‐2‐sulfonate] | 42 ± 1.35 nM | 49.5 ± 12.1 nM | 231 ± 1 nM | 173.25 µg/mL | 0.802 ± 0.072 | 1.260 ± 0.079 | 10 mm | 11 mm | 8 mm | 10 mm | 160 ± 46.6 nM | increase of activity on hCA II with n-propanol (2b) instead of n-butanol (2d) (hCA II; 2b compared with 2d, Ki hCA II): 1.56 fold |
| CC(C)OS(=O)(=O)N1C(=O)c2ccccc2C1(O)c1ccccc1 (centres unmarked) [2c, Isopropyl1‐hydroxy‐3‐oxo‐1‐phenylisoindoline‐2‐sulfonate] | 12.6 ± 0.37 nM | 11.5 ± 4.18 nM | 13.02 ± 0.041 nM | 40.76 µg/mL | 0.549 ± 0.049 | 1.323 ± 0.133 | 18 mm | 16 mm | 19 mm | 17 mm | 9.32 ± 2.35 nM | cell proliferation of L929 cells compared with control group (in words) (L929 cells): increased cell proliferation |
| CCCCOS(=O)(=O)N1C(=O)c2ccccc2C1(O)c1ccccc1 (centres unmarked) [2d, Butyl1‐hydroxy‐3‐oxo‐1‐phenylisoindoline‐2‐sulfonate] | 75.7 ± 1.21 nM | 87.1 ± 35.2 nM | 86.37 ± 0.338 nM | 99.00 µg/mL | 0.719 ± 0.032 | 1.278 ± 0.059 | 13 mm | 12 mm | 14 mm | 12 mm | 251 ± 37.1 nM | cell proliferation of L929 cells compared with control group (in words) (L929 cells): increased cell proliferation |
| CC(C)COS(=O)(=O)N1C(=O)c2ccccc2C1(O)c1ccccc1 (centres unmarked) [2e, Isobutyl1‐hydroxy‐3‐oxo‐1‐phenylisoindoline‐2‐sulfonate] | 11.8 ± 0.132 nM | 33.3 ± 15.1 nM | 23.85 ± 0.152 nM | 53.30 µg/mL | 0.624 ± 0.040 | 1.316 ± 0.023 | 14 mm | 10 mm | 13 mm | 11 mm | 37.5 ± 14.7 nM |  |
| O=C1c2ccccc2C(O)(c2ccccc2)N1S(=O)(=O)OC1CCCCC1 (centres unmarked) [2f, Cyclohexyl1‐hydroxy‐3‐oxo‐1‐phenylisoindoline‐2‐sulfonate] | 11.2 ± 0.291 nM | 16.1 ± 4.14 nM | 27.8 ± 0.17 nM | 27.72 µg/mL | 0.426 ± 0.132 | 1.485 ± 0.156 | 25 mm | 20 mm | 24 mm | 22 mm | 14.9 ± 3.25 nM | antioxidant activity (in words) [1]: highest antioxidant activity; zone of inhibition at 1000 µg/mL ([7]; Candida albicans, ATCC10231, 24 h, read-out: inhibitory zone diameter, F1 Candida albicans): 19 mm; zone of inhibition at 1000 µg/mL ([8]; Yarrowia lipolytica, ATCC20460, 24 h, read-out: inhibitory zone diameter, F2 Yarrowia lipolytica): 16 mm |
| CC1(C)S[C@@H]2[C@H](NC(=O)[C@H](N)c3ccccc3)C(=O)N2[C@H]1C(=O)O [Ampicillin, reference compound] |  |  |  |  |  |  |  |  |  |  |  | zone of inhibition at 10 µg/disc ([3]; ATCC43895, positive control 10 µg disc^−1, disc diameter 5 mm): 20 mm; zone of inhibition at 10 µg/disc ([4]; ATCC6633, read-out: inhibitory zone diameter, B1 Bacillus subtilis): 18 mm; zone of inhibition at 10 µg/disc ([5]; ATCC25923, read-out: inhibitory zone diameter, B2 Staphylococcus aureus): 21 mm; zone of inhibition at 10 µg/disc ([6]; ATCC13883, read-out: inhibitory zone diameter, B4 Klebsiella pneumonia): 19 mm |
| COc1ccc(O)c(C(C)(C)C)c1 [BHA, reference compound] |  |  |  | 12.83 µg/mL (≈ 71.2 µM) | 0.201 ± 0.040 | 2.625 ± 0.241 |  |  |  |  |  |  |
| Cc1cc(C(C)(C)C)c(O)c(C(C)(C)C)c1 [BHT, reference compound] |  |  |  | 16.11 µg/mL (≈ 73.1 µM) | 0.293 ± 0.094 | 2.510 ± 0.111 |  |  |  |  |  |  |
| C[C@@H]1[C@H](O)[C@@H](C)/C=C/C=C/CC/C=C/C=C/C=C/C=C/C(O[C@H]2O[C@H](C)[C@@H](O)[C@H](N)[C@@H]2O)CC2O[C@](O)(CC(O)C(O)CCC(O)CC(O)CC(O)CC(=O)O[C@H]1C)CC(O)C2C(=O)O (some centres unmarked) [Nystatin, reference compound] |  |  |  |  |  |  |  |  |  |  |  | inhibitory zone diameter, F1 Candida albicans [7, 9]: 18 mm; inhibitory zone diameter, F2 Yarrowia lipolytica [8, 9]: 15 mm |
| Cc1c(C)c2c(c(C)c1O)CC[C@@](C)(CCC[C@H](C)CCC[C@H](C)CCCC(C)C)O2 [α‐Tokoferol, α‐tocopherol, reference compound] |  |  |  | 18.23 µg/mL (≈ 42.3 µM) | 0.319 ± 0.101 | 1.465 ± 0.284 |  |  |  |  |  |  |
